Assay results: patent US20100048596A2, “Indole Derivatives as Antitumoral Compounds” (Pharma Mar, S.A., priority 2005, published 2010)

Assays:
P388 = details: literature; cited from earlier work
A-549 = details: literature; cited from earlier work
A549 = assay type: cell-based; details: for GI50 / TGI: A549, 48 hours exposure, SRB; for TGI: total growth inhibition (cytostatic effect)
Source text: (§1) The finality of these assays is to interrupt the growth of an “in vitro” tumor cell culture by means of a continued exhibition of the cells to the sample to be testing.
(§2) Inhibition of Cell Growth by Colorimetric Assay
(§3) A colorimetric type of assay, using sulforhodamine B (SRB) reaction has been adapted for a quantitative measurement of cell growth and viability [following the technique described by Philip Skehan et al. (1990), New calorimetric cytotoxicity assay for anticancer drug screening, J. Natl. Cancer Inst., 82:1107-1112].
(§4) This form of assay employs 96 well cell culture microplates of 9 mm diameter (Faircloth et al. Methods in cell science, (1988), 11(4), 201-205; Mosmann et al, Journal of Immunological. Methods (1983), 65(1-2), 55-63). Most of the cell lines are obtained from American Type Culture Collection (ATCC) derived from different human cancer types.
(§5) Cells are maintained in RPMI 1640 10% FBS, supplemented with 0.1 g/L penicillin and 0.1 g/L streptomycin sulphate and then incubated at 37° C., 5% CO2 and 98% humidity. For the experiments, cells were harvested from subconfluent cultures using trypsin and resuspended in fresh medium before plating.
(§6) Cells are seeded in 96 well microtiter plates, at 5×10^3 cells per well in aliquots of 195 μL medium, and they are allowed to attach to the plate surface by growing in drug free medium for 18 hours. Afterward, samples are added in aliquots of 5 μL in a ranging from 10 to 10^−8 μg/mL, dissolved in DMSO:EtOH:PBS (0.5:0.5:99). After 48 hours exposure, the antitumor effect is measured by the SRB methodology: cells are fixed by adding 50 μL of cold 50% (wt/vol) trichloroacetic acid (TCA) and incubated for 60 minutes at 4° C. Plates are washed with deionised water and dried. 100 μL of SRB solution (0.4% wt/vol in 1% acetic acid) is added to each microtiter well and incubated for 10 minutes at room temperature. Unbound SRB is removed by washing with 1% acetic acid. Plates are air dried and bound stain is solubilized with Tris buffer. Optical densities are read on an automated spectrophotometric plate reader at a single wavelength of 490 nm.
(§7) The values for mean+/−SD of data from triplicate wells are calculated. Some parameters for cellular responses can be calculated: GI=growth inhibition, TGI=total growth inhibition (cytostatic effect) and LC=cell killing (cytotoxic effect).

HT29 = assay type: cell-based; details: for GI50 / TGI: HT29, 48 hours exposure, SRB; for TGI: total growth inhibition (cytostatic effect)
Source text: as §1, §2, §3, §4, §5, §6, §7

MDA-MB-231 = assay type: cell-based; details: for GI50 / TGI: MDA-MB-231, 48 hours exposure, SRB; for TGI: total growth inhibition (cytostatic effect)
Source text: as §1, §2, §3, §4, §5, §6, §7

IGROV1 tumor cell line = details: Jiang et al. 2001; cited from earlier work
CCRF-CEM cancer lines = details: Jiang et al. 2001; cited from earlier work
HOP-92 cancer lines = details: Jiang et al. 2001; cited from earlier work
HT-29 = details: Sun and Sakemi 1991; cited from earlier work

Compound	GI50 (A549) [nM]	GI50 (HT29) [nM]	TGI (HT29) [Molar]	CC50 (MDA-MB-231) [µM]	GI50 (MDA-MB-231) [nM]	TGI (MDA-MB-231) [Molar]	other results
6-hydroxydiscodermindole	–	–	–	–	–	–	IC50 (P388): 4.6 µg/mL; IC50 (A-549): > 5 µg/mL
CC(=O)N=C1NCCC(c2c[nH]c3ccc(Br)cc23)N1 (single isomer, unassigned) [Compound II]	656	388	5.67E−7	6.26	418	1.52E−6	–
COn1cc(C2CCNC(=NC(C)=O)N2)c2cc(Br)ccc21 (single isomer, unassigned) [Compound IV]	630	329	4.65E−7	5.2	411	1.37E−6	TGI (A549): 7.12E−7 Molar; CC50 (HT29): 767 nM
COn1cc(C2CCNC(=NC(C)=O)N2)c2cc(Br)c(Br)cc21 (single isomer, unassigned) [Compound VI]	1310	473	9.23E−7	4.95	811	1.98E−6	CC50 (A549): 1150 nM; TGI (A549): 4.05E−6 Molar; CC50 (HT29): 2480 nM
COn1cc(C2CCNC(=N)N2)c2cc(Br)c(Br)cc21 (single isomer, unassigned) [Compound V]	8700	7960	1.74E−5	–	7960	2.06E−5	–
C1=CN(c2c[nH]c3ccccc23)C(c2c[nH]c3ccccc23)N=C1 (stereo not drawn) [compound 8, 2,3-bis(3-indolyl)pyrimidine]	–	–	–	–	–	–	GI50 (IGROV1 tumor cell line): < 10 nM
COc1nc(-c2c[nH]c3ccccc23)cnc1N [compound 19, 2-amino-3methoxyl-5-(3′-indolyl)pyrazine]	–	–	–	–	–	–	GI50 (CCRF-CEM cancer lines): 810 nM; GI50 (HOP-92 cancer lines): 30 nM
discodermindole	–	–	–	–	–	–	IC50 (P388): 1.8 µg/mL; IC50 (A-549): 4.6 µg/mL; IC50 (HT-29): 12 µg/mL
